Source: ChEMBL document CHEMBL5465560, “Selectivity Literature for EUbOPEN Chemogenomic Library” (2024)

How the values were obtained:
[1] = target: Mast/stem cell growth factor receptor Kit (Homo sapiens, UniProt P10721); experiment: Selectivity interaction (Kinase screening (Nanosyn)) EUB0000604a KIT
[2] = target: Serine/threonine-protein kinase 10 (Homo sapiens) (UniProt O94804); experiment: Selectivity interaction (ActivX KiNativ screen (kinase selectivity in THP-1 cell lysates)) EUB0000639a STK10; format: subcellular; details: lysate, at 0.2 µM
[3] = target: T1, Serine/threonine-protein kinase TAO2 (Homo sapiens) (UniProt Q9UL54); experiment: Selectivity interaction (ProQinase) EUB0000171b TAOK2
T1 sequence (whole entry): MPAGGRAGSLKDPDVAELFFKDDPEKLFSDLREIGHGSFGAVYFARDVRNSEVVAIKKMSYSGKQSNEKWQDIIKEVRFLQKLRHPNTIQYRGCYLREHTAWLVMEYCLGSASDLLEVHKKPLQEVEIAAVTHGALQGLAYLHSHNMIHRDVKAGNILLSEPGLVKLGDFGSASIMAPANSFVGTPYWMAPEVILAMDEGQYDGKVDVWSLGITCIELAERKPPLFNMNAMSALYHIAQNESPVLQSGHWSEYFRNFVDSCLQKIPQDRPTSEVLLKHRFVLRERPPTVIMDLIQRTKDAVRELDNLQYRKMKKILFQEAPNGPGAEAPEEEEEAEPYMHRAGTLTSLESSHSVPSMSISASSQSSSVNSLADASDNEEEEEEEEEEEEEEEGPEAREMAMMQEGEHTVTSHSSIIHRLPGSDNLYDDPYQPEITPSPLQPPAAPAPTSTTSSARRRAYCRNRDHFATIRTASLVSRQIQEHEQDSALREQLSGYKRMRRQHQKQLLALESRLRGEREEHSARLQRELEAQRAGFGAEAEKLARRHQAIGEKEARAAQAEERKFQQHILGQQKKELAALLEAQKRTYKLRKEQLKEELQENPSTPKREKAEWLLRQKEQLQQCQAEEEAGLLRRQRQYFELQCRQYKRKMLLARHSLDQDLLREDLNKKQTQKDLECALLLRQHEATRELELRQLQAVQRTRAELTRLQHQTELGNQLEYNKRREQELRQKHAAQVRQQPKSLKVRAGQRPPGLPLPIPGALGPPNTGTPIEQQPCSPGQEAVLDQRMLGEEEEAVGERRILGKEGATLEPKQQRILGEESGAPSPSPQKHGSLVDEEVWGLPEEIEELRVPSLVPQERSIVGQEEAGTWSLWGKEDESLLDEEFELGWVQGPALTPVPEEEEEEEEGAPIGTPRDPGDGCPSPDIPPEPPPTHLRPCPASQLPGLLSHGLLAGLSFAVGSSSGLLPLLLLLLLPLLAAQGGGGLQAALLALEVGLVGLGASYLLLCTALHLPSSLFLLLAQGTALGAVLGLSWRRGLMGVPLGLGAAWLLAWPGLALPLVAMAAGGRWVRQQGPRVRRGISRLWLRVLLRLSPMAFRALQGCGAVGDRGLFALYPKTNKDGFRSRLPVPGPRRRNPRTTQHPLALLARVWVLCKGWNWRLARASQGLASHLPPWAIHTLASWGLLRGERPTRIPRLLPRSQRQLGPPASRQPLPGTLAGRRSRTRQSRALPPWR

[4] = target: T2, Cyclin-dependent kinase 11A (Homo sapiens) (UniProt Q9UQ88); experiment: Selectivity interaction (KinomeScan (DiscoverX)) EUB0000092b CDK11A; details: at 10 µM
T2 sequence (whole entry): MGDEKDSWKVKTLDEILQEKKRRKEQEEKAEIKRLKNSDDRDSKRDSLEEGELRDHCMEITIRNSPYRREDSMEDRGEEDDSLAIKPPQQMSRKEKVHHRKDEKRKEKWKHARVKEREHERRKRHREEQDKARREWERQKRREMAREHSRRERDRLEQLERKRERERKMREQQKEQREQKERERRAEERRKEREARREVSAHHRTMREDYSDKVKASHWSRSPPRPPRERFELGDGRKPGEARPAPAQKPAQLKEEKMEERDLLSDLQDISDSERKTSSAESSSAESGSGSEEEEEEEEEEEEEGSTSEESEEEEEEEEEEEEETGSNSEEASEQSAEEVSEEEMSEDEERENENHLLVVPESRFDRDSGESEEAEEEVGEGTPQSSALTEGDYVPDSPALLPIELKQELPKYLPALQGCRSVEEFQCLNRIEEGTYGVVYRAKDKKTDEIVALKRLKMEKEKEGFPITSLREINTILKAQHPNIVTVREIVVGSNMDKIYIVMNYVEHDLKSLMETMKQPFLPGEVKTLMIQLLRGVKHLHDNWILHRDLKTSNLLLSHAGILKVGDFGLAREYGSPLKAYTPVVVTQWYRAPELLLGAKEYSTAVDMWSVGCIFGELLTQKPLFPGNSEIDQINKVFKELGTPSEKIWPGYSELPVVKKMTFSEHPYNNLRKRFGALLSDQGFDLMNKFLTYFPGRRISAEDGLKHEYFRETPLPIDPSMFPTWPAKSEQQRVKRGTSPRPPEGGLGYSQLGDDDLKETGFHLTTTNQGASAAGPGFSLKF

[5] = target: RAC-alpha serine/threonine-protein kinase (Homo sapiens, UniProt P31749); experiment: Selectivity interaction (KinomeScan (DiscoverX)) EUB0000655a AKT1; details: at 10 µM
[6] = target: Tyrosine-protein kinase receptor UFO (Homo sapiens) (UniProt P30530); experiment: Selectivity interaction (KinomeScan (DiscoverX)) EUB0001619a AXL; details: at 1 µM
[7] = target: Serine/threonine-protein kinase 25 (Homo sapiens) (UniProt O00506); experiment: Selectivity interaction (ActivX KiNativ screen (ex vivo kinase selectivity in human PBMCs)) EUB0001619a STK25; format: cell-based; details: PBMC, at 1 µM
[8] = target: T3, Phosphatidylinositol 5-phosphate 4-kinase type-2 alpha (Homo sapiens) (UniProt P48426); experiment: Selectivity interaction (Kinase panel (KiNativ target engagement assay in Jurkat cells)) EUB0001635a PIP4K2A; format: cell-based; details: Selectivity number of off-targets 0.0, Selectivity number of targets 233.0, Source Knowledge https://www.sciencedirect.com/science/article/pii/S2451945619300674?via%3Dihub, at 1 µM
T3 sequence (whole entry): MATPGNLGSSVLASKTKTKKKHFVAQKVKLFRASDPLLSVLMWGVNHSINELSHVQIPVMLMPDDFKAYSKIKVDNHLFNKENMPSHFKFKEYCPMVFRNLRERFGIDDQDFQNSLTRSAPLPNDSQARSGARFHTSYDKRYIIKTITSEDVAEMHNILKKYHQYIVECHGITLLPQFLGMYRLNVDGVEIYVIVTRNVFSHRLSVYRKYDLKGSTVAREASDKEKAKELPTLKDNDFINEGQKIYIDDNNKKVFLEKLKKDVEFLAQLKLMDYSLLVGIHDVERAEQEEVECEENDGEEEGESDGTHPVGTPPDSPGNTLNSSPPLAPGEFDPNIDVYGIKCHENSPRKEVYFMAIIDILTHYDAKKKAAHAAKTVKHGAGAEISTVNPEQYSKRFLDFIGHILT

Chain of Serine/threonine-protein kinase 10 (Homo sapiens) (O94804 whole entry, looked up): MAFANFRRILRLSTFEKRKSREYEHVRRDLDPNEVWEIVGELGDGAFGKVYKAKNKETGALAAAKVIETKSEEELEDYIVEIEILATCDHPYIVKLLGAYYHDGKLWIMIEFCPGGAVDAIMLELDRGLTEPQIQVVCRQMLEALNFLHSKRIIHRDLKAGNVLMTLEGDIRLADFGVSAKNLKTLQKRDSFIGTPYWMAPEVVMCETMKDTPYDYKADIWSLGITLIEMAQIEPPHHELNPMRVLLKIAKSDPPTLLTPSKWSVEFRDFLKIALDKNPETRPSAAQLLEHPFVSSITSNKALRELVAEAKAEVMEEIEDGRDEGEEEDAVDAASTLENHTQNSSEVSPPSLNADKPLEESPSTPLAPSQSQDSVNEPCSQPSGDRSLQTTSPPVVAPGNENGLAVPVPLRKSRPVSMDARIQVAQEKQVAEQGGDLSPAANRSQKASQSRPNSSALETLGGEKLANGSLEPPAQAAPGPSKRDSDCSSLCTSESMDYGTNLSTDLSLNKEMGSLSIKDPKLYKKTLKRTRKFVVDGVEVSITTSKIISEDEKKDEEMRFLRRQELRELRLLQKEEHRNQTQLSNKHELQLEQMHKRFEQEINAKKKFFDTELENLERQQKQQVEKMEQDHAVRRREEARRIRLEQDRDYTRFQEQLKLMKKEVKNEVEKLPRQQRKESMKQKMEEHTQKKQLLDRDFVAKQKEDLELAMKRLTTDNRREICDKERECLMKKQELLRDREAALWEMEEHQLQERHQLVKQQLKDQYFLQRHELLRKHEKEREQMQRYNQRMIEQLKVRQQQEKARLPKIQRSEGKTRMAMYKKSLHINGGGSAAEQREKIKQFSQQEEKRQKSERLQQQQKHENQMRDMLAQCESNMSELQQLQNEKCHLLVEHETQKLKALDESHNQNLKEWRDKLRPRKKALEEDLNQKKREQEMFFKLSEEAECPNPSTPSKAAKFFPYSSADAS
Chain of Serine/threonine-protein kinase 25 (Homo sapiens) (O00506 whole entry, looked up): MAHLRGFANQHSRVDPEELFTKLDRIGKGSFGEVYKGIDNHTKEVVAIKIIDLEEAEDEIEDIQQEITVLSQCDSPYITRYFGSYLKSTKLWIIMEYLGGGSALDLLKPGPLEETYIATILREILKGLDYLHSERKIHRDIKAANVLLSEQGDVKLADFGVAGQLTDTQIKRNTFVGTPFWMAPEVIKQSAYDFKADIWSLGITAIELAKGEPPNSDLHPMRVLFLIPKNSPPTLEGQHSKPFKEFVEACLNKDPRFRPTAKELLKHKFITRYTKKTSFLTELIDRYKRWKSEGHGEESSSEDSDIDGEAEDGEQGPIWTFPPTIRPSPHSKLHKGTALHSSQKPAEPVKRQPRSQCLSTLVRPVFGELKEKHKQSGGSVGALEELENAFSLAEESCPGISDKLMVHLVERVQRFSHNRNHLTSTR
Chain of Tyrosine-protein kinase receptor UFO (Homo sapiens) (P30530 whole entry): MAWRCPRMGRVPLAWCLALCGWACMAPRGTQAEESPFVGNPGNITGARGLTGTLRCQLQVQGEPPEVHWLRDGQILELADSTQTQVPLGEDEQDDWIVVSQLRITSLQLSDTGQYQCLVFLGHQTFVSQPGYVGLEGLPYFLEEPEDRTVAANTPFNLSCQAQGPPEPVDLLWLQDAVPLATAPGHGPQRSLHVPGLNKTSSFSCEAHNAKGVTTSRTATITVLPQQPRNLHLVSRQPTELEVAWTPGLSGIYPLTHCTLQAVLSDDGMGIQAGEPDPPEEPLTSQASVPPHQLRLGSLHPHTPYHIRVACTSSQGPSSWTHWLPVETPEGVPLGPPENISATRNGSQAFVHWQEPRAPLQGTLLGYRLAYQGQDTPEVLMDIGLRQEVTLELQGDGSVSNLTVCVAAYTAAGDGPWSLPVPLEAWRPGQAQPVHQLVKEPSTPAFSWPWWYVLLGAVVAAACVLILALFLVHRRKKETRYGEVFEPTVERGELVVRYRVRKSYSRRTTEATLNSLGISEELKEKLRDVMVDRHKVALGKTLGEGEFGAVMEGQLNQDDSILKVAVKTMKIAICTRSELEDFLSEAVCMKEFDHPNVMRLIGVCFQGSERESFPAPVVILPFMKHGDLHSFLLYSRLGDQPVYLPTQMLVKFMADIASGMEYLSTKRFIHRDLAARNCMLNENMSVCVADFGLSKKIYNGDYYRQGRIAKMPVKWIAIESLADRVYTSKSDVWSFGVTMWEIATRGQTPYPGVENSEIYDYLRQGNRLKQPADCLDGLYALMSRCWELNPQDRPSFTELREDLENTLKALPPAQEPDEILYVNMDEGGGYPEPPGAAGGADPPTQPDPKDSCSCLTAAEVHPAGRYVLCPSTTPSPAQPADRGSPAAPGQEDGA
Chain of Mast/stem cell growth factor receptor Kit (P10721 whole entry): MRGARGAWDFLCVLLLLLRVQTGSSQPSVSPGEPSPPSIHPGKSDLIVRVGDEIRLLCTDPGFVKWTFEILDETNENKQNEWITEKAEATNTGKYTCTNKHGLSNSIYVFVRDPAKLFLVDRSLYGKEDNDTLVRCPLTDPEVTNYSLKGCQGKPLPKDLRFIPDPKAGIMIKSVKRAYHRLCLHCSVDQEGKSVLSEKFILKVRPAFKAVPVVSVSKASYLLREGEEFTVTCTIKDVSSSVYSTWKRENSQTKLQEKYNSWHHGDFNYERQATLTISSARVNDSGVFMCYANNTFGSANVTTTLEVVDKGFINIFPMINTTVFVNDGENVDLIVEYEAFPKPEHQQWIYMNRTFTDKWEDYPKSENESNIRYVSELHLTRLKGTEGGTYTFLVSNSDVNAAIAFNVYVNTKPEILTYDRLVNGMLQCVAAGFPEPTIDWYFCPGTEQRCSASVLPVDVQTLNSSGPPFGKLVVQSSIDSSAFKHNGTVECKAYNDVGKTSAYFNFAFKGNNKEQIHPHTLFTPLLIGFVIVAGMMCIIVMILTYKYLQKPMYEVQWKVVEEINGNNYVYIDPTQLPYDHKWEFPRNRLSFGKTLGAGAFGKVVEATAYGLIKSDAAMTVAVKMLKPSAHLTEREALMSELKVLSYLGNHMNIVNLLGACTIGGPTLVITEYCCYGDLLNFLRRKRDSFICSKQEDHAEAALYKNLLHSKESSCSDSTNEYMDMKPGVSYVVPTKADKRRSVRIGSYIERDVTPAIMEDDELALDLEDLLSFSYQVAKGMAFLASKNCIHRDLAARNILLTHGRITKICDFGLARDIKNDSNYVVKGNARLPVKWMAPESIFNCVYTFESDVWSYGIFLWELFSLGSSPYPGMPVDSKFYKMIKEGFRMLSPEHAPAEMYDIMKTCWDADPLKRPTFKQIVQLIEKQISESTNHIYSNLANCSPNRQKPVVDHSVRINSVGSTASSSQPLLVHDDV
Chain of RAC-alpha serine/threonine-protein kinase (P31749 whole entry): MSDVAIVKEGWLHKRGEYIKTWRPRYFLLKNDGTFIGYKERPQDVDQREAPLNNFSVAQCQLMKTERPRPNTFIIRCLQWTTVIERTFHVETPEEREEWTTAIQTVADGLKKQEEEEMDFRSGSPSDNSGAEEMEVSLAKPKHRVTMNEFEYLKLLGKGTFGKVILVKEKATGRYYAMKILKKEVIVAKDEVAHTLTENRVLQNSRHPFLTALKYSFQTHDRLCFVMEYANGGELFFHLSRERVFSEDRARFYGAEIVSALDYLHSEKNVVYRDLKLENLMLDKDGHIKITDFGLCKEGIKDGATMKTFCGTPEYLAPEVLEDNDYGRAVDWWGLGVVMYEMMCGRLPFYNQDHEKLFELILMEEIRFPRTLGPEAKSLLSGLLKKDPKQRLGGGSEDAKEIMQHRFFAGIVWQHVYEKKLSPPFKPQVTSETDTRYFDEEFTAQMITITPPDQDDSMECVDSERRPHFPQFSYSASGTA

## Cc1cnc(Nc2ccc(F)cc2Cl)nc1-c1c[nH]c(C(=O)N[C@H](CO)c2cccc(Cl)c2)c1
[1]
  % of inhibition: 8%

## CC[C@@H]1[C@H](F)C(=O)N[C@@H]1COc1nccc2cc(C(N)=O)c(OC)cc12 [ZIMLOVISERTIB]
[2]
  % of inhibition: -43.2%

## C=CC(=O)Nc1cccc(C(=O)Nc2ccc(Nc3cc(-c4[nH]c(SC)nc4C)ccn3)cc2)c1
[3]; at 1 µM
  % of control: 38%
[3]; at 5 µM
  % of control: 16%

## CCC(=O)N1CCN(c2ccc(-n3c(=O)ccc4cnc5ccc(-c6cnc7ccccc7c6)cc5c43)cc2C(F)(F)F)CC1
[4]
  % of control: 100%

## CN(C)CCOc1ccc(-c2nc(-c3ccncc3)c(-c3ccc4c(c3)CC/C4=N\O)[nH]2)cc1
[5]
  % of control: 97%

## N#Cc1cccc(-c2c[nH]c3ncnc(N4CCOCC4)c23)c1
[6]
  % of control: 99%
[7]
  % of inhibition: 39%

## C=CC(=O)Nc1ccc(C(=O)Nc2[nH]nc3c2CN(C(=O)N[C@H](CN(C)C)c2ccccc2)C3(C)C)cc1
[8]
  % of engagement: -3.2%
